Source: paper PMC6690571 (ACS Omega, 2019)
Each block holds one molecule with its values, some of them ahead of it.

Legend:
mGlu5 [1] = target: T1, mGlu5 (Homo sapiens, UniProt P41594); experiment: standard mGlu5 calcium mobilization functional assay, human mGlu5; type: cell-based; conditions: for EC50: EC50 (PAM)
mGlu5 [2] = target: T1, mGlu5; experiment: standard mGlu5 calcium mobilization functional assay, PAM and NAM modes; type: cell-based
mGlu5 [3] = target: T1, mGlu5; conditions: Figure 1 ref 14; cited from earlier work
[4] = human mGlu5 assay, synthetic material

T1 sequence (P41594 21-1212): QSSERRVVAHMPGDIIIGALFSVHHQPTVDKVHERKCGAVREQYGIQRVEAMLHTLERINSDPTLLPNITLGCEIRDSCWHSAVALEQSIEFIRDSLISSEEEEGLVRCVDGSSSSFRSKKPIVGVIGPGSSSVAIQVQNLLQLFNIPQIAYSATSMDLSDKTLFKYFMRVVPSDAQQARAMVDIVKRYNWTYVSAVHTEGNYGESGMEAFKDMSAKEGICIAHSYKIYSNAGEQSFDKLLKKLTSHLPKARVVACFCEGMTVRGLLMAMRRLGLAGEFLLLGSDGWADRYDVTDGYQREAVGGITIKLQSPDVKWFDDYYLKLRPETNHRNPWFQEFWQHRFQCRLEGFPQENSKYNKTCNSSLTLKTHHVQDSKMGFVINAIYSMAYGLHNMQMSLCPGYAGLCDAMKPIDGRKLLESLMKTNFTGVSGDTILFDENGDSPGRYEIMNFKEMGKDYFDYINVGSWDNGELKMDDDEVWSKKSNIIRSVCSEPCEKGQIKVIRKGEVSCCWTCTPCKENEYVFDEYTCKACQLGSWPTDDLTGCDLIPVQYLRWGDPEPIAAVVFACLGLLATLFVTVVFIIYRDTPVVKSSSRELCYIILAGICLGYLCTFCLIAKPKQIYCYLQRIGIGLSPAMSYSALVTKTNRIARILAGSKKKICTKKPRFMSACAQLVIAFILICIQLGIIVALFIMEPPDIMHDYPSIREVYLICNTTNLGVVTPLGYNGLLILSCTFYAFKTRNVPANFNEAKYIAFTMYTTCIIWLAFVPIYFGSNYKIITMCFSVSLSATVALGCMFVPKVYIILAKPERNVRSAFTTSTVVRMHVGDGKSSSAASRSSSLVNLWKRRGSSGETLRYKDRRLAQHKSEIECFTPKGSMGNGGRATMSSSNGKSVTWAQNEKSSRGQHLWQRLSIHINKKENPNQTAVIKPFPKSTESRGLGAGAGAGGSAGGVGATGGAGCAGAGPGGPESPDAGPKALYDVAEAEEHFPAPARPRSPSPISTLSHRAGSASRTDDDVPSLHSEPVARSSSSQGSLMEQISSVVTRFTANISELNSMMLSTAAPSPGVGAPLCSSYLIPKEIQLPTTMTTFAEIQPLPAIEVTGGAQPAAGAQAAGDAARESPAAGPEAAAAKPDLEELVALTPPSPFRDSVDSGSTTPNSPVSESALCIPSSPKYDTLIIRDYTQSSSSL

EC50 (mGlu5 [1]; kit-produced M4, human mGlu5 assay, material from the BMO production kit): 0.51 µM | EC50 (mGlu5 [1]; synthetic-derived M4, human mGlu5 assay, synthetic material): 0.315 µM | % Glu Max, kit-produced M4 (mGlu5 [1]; human mGlu5 assay, material from the BMO production kit): 75 % Glu Max | % Glu Max, synthetic-derived M4 (mGlu5 [1]; [4]): 77% | agonism (no agonism noted up to), synthetic-derived M4 (mGlu5 [1]; [4]): > 30 µM
SMILES: NC(=O)c1ccc(C#Cc2cccc(F)c2)cn1 [M4, 5-((3-Fluorophenyl)ethynyl)picolinamide]

activity in NAM mode (mGlu5 [2]): inactive | activity in PAM mode (mGlu5 [2]): inactive
SMILES: O=C(C(=O)c1cccc(F)c1)c1ccc(C(=O)NC2CCC2)nc1 [M5, N-Cyclobutyl-5-(2-(3-fluorophenyl)-2-oxoacetyl)picolinamide]

activity in NAM mode (mGlu5 [2]): inactive | activity in PAM mode (mGlu5 [2]): inactive
SMILES: O=C(c1ccc(C(=O)NC2CCC2)nc1)c1cccc(F)c1 [M6, N-Cyclobutyl-5-(3-fluorobenzoyl)picolinamide]

SMILES: O=C(O)c1ccc(C#Cc2cccc(F)c2)cn1 [compound 3, 5-((3-Fluorophenyl)ethynyl)picolinic Acid]
activity of metabolite M2, the product of amide hydrolysis (mGlu5 [3]): inactive
